{"source": "patent US20110053916A1", "about": "(Vertex Pharmaceuticals Incorporated, priority 2009, published 2011)", "note": "Structures can show the parent of a compound that is named as a salt."}
{"biological_target": "T1, PknB (Mycobacterium tuberculosis, UniProt P9WI81)", "T1 construct": "made in house", "T1 sequence (P9WI81 whole entry)": "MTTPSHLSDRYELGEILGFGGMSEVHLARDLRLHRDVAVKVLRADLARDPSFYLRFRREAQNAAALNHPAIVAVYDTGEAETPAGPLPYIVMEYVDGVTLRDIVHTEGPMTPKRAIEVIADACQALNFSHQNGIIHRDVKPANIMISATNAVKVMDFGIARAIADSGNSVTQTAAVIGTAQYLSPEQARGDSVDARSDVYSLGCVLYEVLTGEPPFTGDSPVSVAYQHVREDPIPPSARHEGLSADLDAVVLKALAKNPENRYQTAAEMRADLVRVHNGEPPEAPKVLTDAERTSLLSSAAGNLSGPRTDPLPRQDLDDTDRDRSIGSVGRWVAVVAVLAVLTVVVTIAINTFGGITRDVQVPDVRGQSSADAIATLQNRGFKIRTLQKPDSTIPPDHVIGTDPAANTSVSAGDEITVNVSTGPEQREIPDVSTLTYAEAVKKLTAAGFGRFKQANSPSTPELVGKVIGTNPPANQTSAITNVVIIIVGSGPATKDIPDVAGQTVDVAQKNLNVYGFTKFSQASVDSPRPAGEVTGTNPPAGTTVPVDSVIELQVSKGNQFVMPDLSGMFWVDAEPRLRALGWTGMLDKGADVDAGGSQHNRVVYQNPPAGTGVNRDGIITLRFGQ", "assay": "biochemical", "parameters": "species or system M. tuberculosis", "details": "not given", "units": {"Ki": "nM"}}
{"molecule": "COC(=O)c1ccc(-c2ncc(Cl)c(Nc3cc(C4CC4)n[nH]3)n2)s1", "note": "[Compound 154, Methyl5-(5-chloro-4-(3-cyclopropyl-1H-pyrazol-5-ylamino)pyrimidin-2-yl)thiophene-2-carboxylate hydrochloride]", "Ki": "10 to 50"}
{"molecule": "C#Cc1cnc(-c2ccc(C(=O)OC)s2)nc1Nc1cc(C2CC2)[nH]n1", "note": "[Compound 151, Methyl 5-(4-(5-cyclopropyl-1H-pyrazol-3-ylamino)-5-ethynylpyrimidin-2-yl)thiophene-2-carboxylate hydrochloride]", "Ki Values": "A**, A*"}
{"biological_target": "T1, PknB", "assay": "biochemical", "parameters": "species or system M. tuberculosis", "details": "3 nM PknB, 6 uM GarA, 3 μM ATP, 30 min; competitive tight-binding fit; several symbols in a cell = repeat determinations"}
{"molecule": "Nc1cnc(-c2ccccc2)nc1Nc1cc(C2CC2)[nH]n1", "note": "[Compound 5, N-(5-cyclopropyl-1H-pyrazol-3-yl)-2-phenylpyrimidine-4,5-diamine]", "Ki Values": "A*, A"}
{"molecule": "CCc1cnc(N2CCCCC2)nc1Nc1cc(C2CC2)[nH]n1", "note": "[Compound 45, N-(5-cyclopropyl-1H-pyrazol-3-yl)-5-ethyl-2-(1-piperidyl)pyrimidin-4-amine]", "Ki Values": "C, D"}
{"molecule": "C[C@H](O)c1ccc(-c2ncc(Cl)c(Nc3cc(C4CC4)[nH]n3)n2)s1", "note": "[Compound 132, (S)-1-(5-(4-(5-cyclopropyl-1H-pyrazol-3-ylamino)-5-chloropyrimidin-2-yl)thiophen-2-yl)ethanol]", "Ki Values": "A**, A*"}
{"molecule": "CC(=O)NS(=O)(=O)c1ccc(-c2ncc(Cl)c(Nc3cc(C4CC4)[nH]n3)n2)s1", "note": "[Compound 194, N-[[5-[5-chloro-4-[(5-cyclopropyl-1H-pyrazol-3-yl)amino]-pyrimidin-2-yl]-2-thienyl]sulfonyl]acetamide]", "Ki Values": "A, B**"}
{"molecule": "O=S(=O)(NCCO)c1cccc(-c2ncc(Cl)c(Nc3cc(C4CC4)[nH]n3)n2)c1", "note": "[Compound 95, 3-[5-chloro-4-[(5-cyclopropyl-1H-pyrazol-3-yl)amino]-pyrimidin-2-yl]-N-(2-hydroxyethyl)benzenesulfonamide]", "Ki Values": "A*, A"}
{"biological_target": "T1, PknB", "assay": "biochemical", "parameters": "species or system M. tuberculosis", "details": "3 nM PknB, 6 uM GarA, 3 μM ATP, 30 min; competitive tight-binding fit; several symbols in a cell = repeat determinations; read-out: Ki Values", "units": {"Ki": "nM"}}
{"molecule": "Cc1cc(Nc2ccnc(Nc3ccc(S(N)(=O)=O)cc3)n2)[nH]n1", "note": "[Compound 76, 4-[[4-[(5-methyl-2H-pyrazol-3-yl)amino]pyrimidin-2-yl]amino]benzenesulfonamide]", "Ki": "10 to 50"}
{"molecule": "CC(=O)OCCc1cnc(-c2ccc(S(=O)(=O)NC(C)(C)C)s2)nc1Nc1cc(C2CC2)[nH]n1", "note": "[Compound 309, 2-[4-[(5-cyclopropyl-1H-pyrazol-3-yl)amino]-2-[5-(tert-butylsulfamoyl)-2-thienyl]-pyrimidin-5-yl]ethyl acetate]", "Ki": "100 to 500"}
{"molecule": "NS(=O)(=O)c1ccccc1-c1ncc(Cl)c(Nc2cc(C3CC3)[nH]n2)n1", "note": "[Compound 155, 2-[5-chloro-4-[(5-cyclopropyl-1H-pyrazol-3-yl)amino]-pyrimidin-2-yl]benzenesulfonamide]", "Ki": "> 4000"}
{"molecule": "NS(=O)(=O)c1ccc(-c2nc(CO)cc(Nc3cc(C4CC4)[nH]n3)n2)s1", "note": "[Compound 285, 5-[4-[(5-cyclopropyl-1H-pyrazol-3-yl)amino]-6-(hydroxymethyl)pyrimidin-2-yl]thiophene-2-sulfonamide]", "Ki": "1 to 10"}
{"molecule": "NS(=O)(=O)c1ccc(-c2nc(Nc3cc(C4CC4)[nH]n3)cc(C(=O)O)n2)s1", "note": "[Compound 283, 6-[(5-cyclopropyl-1H-pyrazol-3-yl)amino]-2-(5-sulfamoyl-2-thienyl)-pyrimidine-4-carboxylic acid]", "Ki": "100 to 500"}
{"molecule": "CC(C)(C)NS(=O)(=O)c1cccc(-c2ncc(O)c(Nc3cc(C4CC4)n[nH]3)n2)c1", "note": "[Compound 102, N-tert-butyl-3-(4-(3-cyclopropyl-1H-pyrazol-5-ylamino)-5-hydroxypyrimidin-2-yl)benzenesulfonamide]", "Ki": "50 to 100"}
{"molecule": "C#Cc1cnc(-c2ccc(S(C)(=O)=O)s2)nc1Nc1cc(C2CC2)[nH]n1", "note": "[Compound 255, N-(5-cyclopropyl-4H-pyrazol-3-yl)-5-ethynyl-2-(5-(methylsulfonyl)thiophen-2-yl)pyrimidin-4-amine]", "Ki": "1 to 10"}
{"molecule": "C/C=C\\c1cnc(-c2ccc(S(N)(=O)=O)s2)nc1Nc1cc(C2CC2)[nH]n1", "note": "[Compound 207, (Z)-5-(4-(5-cyclopropyl-1H-pyrazol-3-ylamino)-5-(prop-1-enyl)pyrimidin-2-yl)thiophene-2-sulfonamide]", "Ki": "1 to 10"}
{"molecule": "Cc1cnc(-c2ccc(S(N)(=O)=O)s2)nc1Nc1cc(C2CC2)[nH]n1", "note": "[Compound 40, 5-(4-(5-cyclopropyl-1H-pyrazol-3-ylamino)-5-methylpyrimidin-2-yl)thiophene-2-sulfonamide]", "Ki": "1 to 10"}
{"molecule": "CSc1cc(Nc2cc(C3CC3)n[nH]2)nc(-c2ccc(S(N)(=O)=O)s2)n1", "note": "[Compound 291, 5-[4-[(5-cyclopropyl-2H-pyrazol-3-yl)amino]-6-methylsulfanyl-pyrimidin-2-yl]thiophene-2-sulfonamide]", "Ki": "100 to 500"}
{"molecule": "C#Cc1cnc(-c2ccc(S(=O)(=O)NCCNC(C)=O)s2)nc1Nc1cc(C2CC2)[nH]n1", "note": "[Compound 181, N-[2-[[5-[4-[(5-cyclopropyl-1H-pyrazol-3-yl)amino]-5-ethynyl-pyrimidin-2-yl]-2-thienyl]sulfonylamino]ethyl]acetamide]", "Ki": "10 to 50"}
{"molecule": "C#Cc1cnc(-c2ccc(CO)s2)nc1Nc1cc(C2CC2)[nH]n1", "note": "[Compound 196, (5-(4-(5-cyclopropyl-1H-pyrazol-3-ylamino)-5-ethynylpyrimidin-2-yl)thiophen-2-yl)methanol]", "Ki": "10 to 50"}
{"molecule": "COCc1cnc(N2CCN(C)CC2)nc1Nc1cc(C2CC2)[nH]n1", "note": "[Compound 69, N-(5-cyclopropyl-1H-pyrazol-3-yl)-5-(methoxymethyl)-2-(4-methylpiperazin-1-yl)-pyrimidin-4-amine]", "Ki": "> 4000"}
{"molecule": "CC1CC1c1cc(Nc2nc(-c3ccc(S(=O)(=O)NC(C)(C)C)s3)ncc2Cl)n[nH]1", "note": "(stereo not shown) [Compound 321, 5-[5-chloro-4-[[5-(2-methylcyclopropyl)-1H-pyrazol-3-yl]amino]-pyrimidin-2-yl]-N-tert-butyl-thiophene-2-sulfonamide]", "Ki": "100 to 500"}
{"molecule": "NS(=O)(=O)c1ccc(-c2ncc(Cl)c(Nc3cc(C4CCNC4)n[nH]3)n2)s1", "note": "(stereo not shown) [Compound 263, 5-[5-chloro-4-[(5-pyrrolidin-3-yl-2H-pyrazol-3-yl)amino]-pyrimidin-2-yl]thiophene-2-sulfonamide]", "Ki": "> 4000"}
{"molecule": "CC#Cc1cnc(-c2ccccc2)nc1Nc1cc(C2CC2)n[nH]1", "note": "[Compound 9, N-(5-cyclopropyl-1H-pyrazol-3-yl)-2-phenyl-5-(prop-1-ynyl)pyrimidin-4-amine]", "Ki": "> 4000"}
{"molecule": "O=S(=O)(NCC(F)(F)F)c1ccc(-c2ncc(Cl)c(Nc3cc(C4CC4)[nH]n3)n2)s1", "note": "[Compound 158, 5-[5-chloro-4-[(5-cyclopropyl-1H-pyrazol-3-yl)amino]-pyrimidin-2-yl]-N-(2,2,2-trifluoroethyl)thiophene-2-sulfonamide]", "Ki": "10 to 50"}
{"molecule": "NCCNS(=O)(=O)c1ccc(-c2ncc(Cl)c(Nc3cc(C4CC4)[nH]n3)n2)s1", "note": "[Compound 75, N-(2-aminoethyl)-5-(5-chloro-4-(5-cyclopropyl-1H-pyrazol-3-ylamino)pyrimidin-2-yl)thiophene-2-sulfonamide]", "Ki": "1 to 10"}
{"molecule": "OCC(O)c1ccc(-c2ncc(Cl)c(Nc3cc(C4CC4)[nH]n3)n2)s1", "note": "(stereo not shown) [Compound 327, 1-[5-[5-chloro-4-[(5-cyclopropyl-1H-pyrazol-3-yl)amino]-pyrimidin-2-yl]-2-thienyl]ethane-1,2-diol]", "Ki": "10 to 50"}
{"molecule": "O=C(O)C(=O)c1ccc(-c2ncc(Cl)c(Nc3cc(C4CC4)[nH]n3)n2)s1", "note": "[Compound 190, 2-(5-(5-chloro-4-(5-cyclopropyl-1H-pyrazol-3-ylamino)pyrimidin-2-yl)thiophen-2-yl)-2-oxoacetic acid]", "Ki": "10 to 50"}
{"molecule": "CC(C)(C)NS(=O)(=O)c1ccc(-c2ncc(Cl)c(Nc3cc(C4CC4)[nH]n3)n2)cn1", "note": "[Compound 302, 5-[5-chloro-4-[(5-cyclopropyl-1H-pyrazol-3-yl)amino]-pyrimidin-2-yl]-N-tert-butyl-pyridine-2-sulfonamide]", "Ki": "10 to 50"}
{"molecule": "Cc1nc(-c2ncc(Cl)c(Nc3cc(C4CC4)[nH]n3)n2)sc1C(C)O", "note": "(stereo not shown) [Compound 296, 1-(2-(5-chloro-4-(5-cyclopropyl-1H-pyrazol-3-ylamino)pyrimidin-2-yl)-4-methylthiazol-5-yl)ethanol]", "Ki": "100 to 500"}
{"molecule": "NS(=O)(=O)c1ccc(-c2ccnc(Nc3cc(C4CC4)n[nH]3)n2)s1", "note": "[Compound 315, 5-[2-[(5-cyclopropyl-2H-pyrazol-3-yl)amino]pyrimidin-4-yl]thiophene-2-sulfonamide]", "Ki": "1 to 10"}
{"molecule": "CC(=O)Nc1cnc(-c2ccc(S(N)(=O)=O)s2)nc1Nc1cc(C2CC2)[nH]n1", "note": "[Compound 241, N-[4-[(5-cyclopropyl-1H-pyrazol-3-yl)amino]-2-(5-sulfamoyl-2-thienyl)-pyrimidin-5-yl]acetamide]", "Ki": "50 to 100"}
{"molecule": "C[S+]([O-])c1ccc(-c2ncc(Cl)c(Nc3cc(C4CC4)[nH]n3)n2)s1", "note": "(stereo not shown) [Compound 264, 5-chloro-N-(5-cyclopropyl-1H-pyrazol-3-yl)-2-(5-methylsulfinyl-2-thienyl)-pyrimidin-4-amine]", "Ki": "1 to 10"}
{"molecule": "Clc1cnc(Nc2ccc3[nH]ncc3c2)nc1Nc1cc(C2CC2)[nH]n1", "note": "[Compound 62, 5-chloro-N4-(5-cyclopropyl-1H-pyrazol-3-yl)-N2-(1H-indazol-5-yl)pyrimidine-2,4-diamine]", "Ki": "> 4000"}
{"molecule": "C#Cc1cnc(N2CC[C@@H](N)C2)nc1Nc1cc(C2CC2)n[nH]1", "note": "[Compound 184, 2-(3-aminopyrrolidin-1-yl)-N-(5-cyclopropyl-2H-pyrazol-3-yl)-5-ethynyl-pyrimidin-4-amine]", "Ki": "> 4000"}
{"molecule": "CC(C)(C)NS(=O)(=O)c1ccc(-c2ncc(NC=O)c(Nc3cc(C4CC4)[nH]n3)n2)s1", "note": "[Compound 253, N-[4-[(5-cyclopropyl-1H-pyrazol-3-yl)amino]-2-[5-(tert-butylsulfamoyl)-2-thienyl]-pyrimidin-5-yl]formamide]", "Ki": "100 to 500"}
{"molecule": "NS(=O)(=O)c1cc(-c2nccc(Nc3cc(C4CC4)[nH]n3)n2)ccc1O", "note": "[Compound 318, 5-[4-[(5-cyclopropyl-1H-pyrazol-3-yl)amino]pyrimidin-2-yl]-2-hydroxy-benzenesulfonamide]", "Ki": "10 to 50"}
{"molecule": "O=C1/C=C\\c2c(n[nH]c2C2CC2)Nc2nc(ncc2Cl)-c2ccccc21", "note": "[Compound 277, chloro-cyclopropyl-BLAHone]", "Ki": "> 4000"}
